Reference: the NIST ThermoML archive (doi:10.1007/s10765-019-2484-6)

Assay: xn = mol fraction of the nth substance listed
Details: Gas, Loschmidt cell combined with holographic interferometry

CCC [propane] + O=C=O
Details	binary diffusion coefficient [m2/s]
293.24 K, 50 kPa, x1 = 0.5	1.89e-05
293.25 K, 100 kPa, x1 = 0.1665	8.54e-06
293.25 K, 200 kPa, x1 = 0.1665	4.14e-06
293.27 K, 100 kPa, x1 = 0.333	8.31e-06
293.27 K, 100 kPa, x1 = 0.833	8.29e-06
293.27 K, 500 kPa, x1 = 0.1665	1.59e-06
293.28 K, 200 kPa, x1 = 0.333	4.12e-06
293.28 K, 200 kPa, x1 = 0.833	4.06e-06
293.3 K, 500 kPa, x1 = 0.333	1.71e-06
293.31 K, 200 kPa, x1 = 0.4995	4.12e-06
293.32 K, 100 kPa, x1 = 0.4995	8.23e-06
293.32 K, 500 kPa, x1 = 0.833	1.51e-06
293.33 K, 200 kPa, x1 = 0.6665	4.06e-06
293.33 K, 500 kPa, x1 = 0.4995	1.49e-06
293.36 K, 100 kPa, x1 = 0.6665	8.25e-06
293.37 K, 200 kPa, x1 = 0.5	4.06e-06
293.39 K, 500 kPa, x1 = 0.5	1.54e-06
293.41 K, 500 kPa, x1 = 0.6665	1.52e-06
293.47 K, 100 kPa, x1 = 0.5	8.23e-06
313.21 K, 200 kPa, x1 = 0.333	4.88e-06
313.21 K, 500 kPa, x1 = 0.5	1.77e-06
313.22 K, 200 kPa, x1 = 0.5	4.77e-06
313.23 K, 100 kPa, x1 = 0.6665	9.67e-06
313.23 K, 200 kPa, x1 = 0.833	4.77e-06
313.25 K, 100 kPa, x1 = 0.833	9.53e-06
313.26 K, 100 kPa, x1 = 0.333	9.71e-06
313.26 K, 200 kPa, x1 = 0.6665	4.79e-06
313.27 K, 500 kPa, x1 = 0.333	1.94e-06
313.27 K, 500 kPa, x1 = 0.6665	1.85e-06
313.27 K, 500 kPa, x1 = 0.833	1.86e-06
313.28 K, 100 kPa, x1 = 0.1665	9.79e-06
313.28 K, 200 kPa, x1 = 0.1665	4.8e-06
313.29 K, 200 kPa, x1 = 0.4995	4.8e-06
313.31 K, 500 kPa, x1 = 0.1665	1.95e-06
313.32 K, 100 kPa, x1 = 0.4995	9.71e-06

C [methane] + CCC
Details	binary diffusion coefficient [m2/s]
293.09 K, 500 kPa, x2 = 0.659	2.12e-06
293.12 K, 500 kPa, x2 = 0.3331	2.19e-06
293.12 K, 500 kPa, x2 = 0.492	2.07e-06
293.13 K, 500 kPa, x2 = 0.833	1.97e-06
293.16 K, 500 kPa, x2 = 0.5	2.19e-06
293.18 K, 500 kPa, x2 = 0.159	2.36e-06
293.19 K, 50 kPa, x2 = 0.5	2.36e-06
293.21 K, 200 kPa, x2 = 0.5	5.78e-06
293.29 K, 100 kPa, x2 = 0.5	1.18e-05
293.31 K, 100 kPa, x2 = 0.4973	1.21e-05
293.31 K, 100 kPa, x2 = 0.6665	1.18e-05
293.31 K, 200 kPa, x2 = 0.6665	5.81e-06
293.32 K, 100 kPa, x2 = 0.159	1.24e-05
293.32 K, 100 kPa, x2 = 0.3335	1.18e-05
293.33 K, 100 kPa, x2 = 0.833	1.18e-05
293.33 K, 200 kPa, x2 = 0.159	6.16e-06
293.33 K, 200 kPa, x2 = 0.3335	5.7e-06
293.33 K, 200 kPa, x2 = 0.833	5.77e-06
293.34 K, 200 kPa, x2 = 0.498	5.81e-06
313.28 K, 500 kPa, x2 = 0.4995	2.71e-06
313.52 K, 500 kPa, x2 = 0.832	2.73e-06
313.54 K, 500 kPa, x2 = 0.1665	2.8e-06
313.55 K, 100 kPa, x2 = 0.8295	1.37e-05
313.55 K, 500 kPa, x2 = 0.332	2.79e-06
313.55 K, 500 kPa, x2 = 0.5	2.72e-06
313.56 K, 100 kPa, x2 = 0.3295	1.4e-05
313.56 K, 100 kPa, x2 = 0.4995	1.31e-05
313.57 K, 200 kPa, x2 = 0.4995	6.73e-06
313.57 K, 200 kPa, x2 = 0.6665	6.92e-06
313.58 K, 100 kPa, x2 = 0.159	1.52e-05
313.58 K, 200 kPa, x2 = 0.5	6.91e-06
313.59 K, 100 kPa, x2 = 0.5	1.38e-05
313.59 K, 200 kPa, x2 = 0.3295	6.98e-06
313.59 K, 500 kPa, x2 = 0.6665	2.76e-06
313.6 K, 100 kPa, x2 = 0.6665	1.4e-05
313.6 K, 200 kPa, x2 = 0.159	7.39e-06
313.61 K, 200 kPa, x2 = 0.8295	6.76e-06
